Data published in patent EP3858439A1 (priority 2020, dated 2021).
Where a name gives a salt, the structure may show the parent alone. Read-outs that look alike come from different tables or passages of the source.

Biological target: T1, human µ-opioid receptor (Homo sapiens, UniProt P35372)
T1 construct: expressed in transfected cells; host or cells: CHO-K1
Test: Binding assay to human µ-opioid receptor ([3H]-DAMGO displacement)
Procedure: Binding assay to human µ-opioid receptor
Transfected CHO-K1 cell membranes (20 µg) were incubated with [^3H]-DAMGO (1 nM) in assay buffer containing Tris-HCl 50 mM, MgCl2 5 mM at pH 7.4.
Plates were incubated at 27 °C for 60 min. After the incubation period, the reaction mixture was then transferred to MultiScreen HTS, FC plates (Millipore), filtered and plates were washed 3 times with ice-cold 10 mM Tris-HCl (pH 7.4).
Filters were dried and counted at approximately 40% efficiency in a MicroBeta scintillation counter (Perkin-Elmer) using EcoScint liquid scintillation cocktail.

[1] = Table 2, transfected CHO-K1 cell membranes, [3H]-DAMGO 1 nM, 60 min at 27 °C, read-out: Binding µ

T1 sequence (P35372 whole entry): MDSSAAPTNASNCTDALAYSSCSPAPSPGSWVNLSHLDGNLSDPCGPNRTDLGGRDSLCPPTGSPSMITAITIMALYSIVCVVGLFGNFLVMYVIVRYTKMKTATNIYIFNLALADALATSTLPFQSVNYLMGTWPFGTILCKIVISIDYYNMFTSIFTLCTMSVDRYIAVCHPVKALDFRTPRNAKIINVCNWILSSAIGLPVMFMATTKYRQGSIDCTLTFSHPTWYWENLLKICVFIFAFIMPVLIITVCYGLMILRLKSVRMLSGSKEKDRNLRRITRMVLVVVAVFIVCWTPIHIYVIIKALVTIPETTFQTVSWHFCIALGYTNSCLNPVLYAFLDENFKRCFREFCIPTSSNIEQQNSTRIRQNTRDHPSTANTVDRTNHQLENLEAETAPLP

| Structure (SMILES) | Ki [nM] | Ki [1] [nM] |
| --- | --- | --- |
| CN(C)C1(c2ccccc2)CCN(C(=O)[C@@H](CN)[C@@H]2CCCc3ccccc32)CC1 (racemic) [Example 77, (RS)-3-Amino-1-(4-(dimethylamino)-4-phenylpiperidin-1-yl)-2-((SR)-1,2,3,4-tetrahydronaphthalen-1-yl)propan-1-one] | < 100 |  |
| CN(C)C1(c2ccccc2)CCN(C(=O)[C@@H](CN)[C@H]2CCCc3ccccc32)CC1 (racemic) [Example 78, (RS)-3-amino-1-(4-(dimethylamino)-4-phenylpiperidin-1-yl)-2-((RS)-1,2,3,4-tetrahydronaphthalen-1-yl)propan-1-one] | < 100 |  |
| CNC[C@@H](C(=O)N1CCC(c2ccccc2)(N(C)C)CC1)[C@@H](C)c1ccccc1 [Example 1, (2S,3R)-1-(4-(Dimethylamino)-4-phenylpiperidin-1-yl)-2-((methylamino)methyl)-3-phenylbutan-1-one dihydrochloride] |  | < 100 |
| CNC[C@@H](C(=O)N1CCC(c2ccc(F)cc2)(N(C)C)CC1)[C@@H](C)c1ccccc1 [Example 2, (2S,3R)-1-(4-(dimethylamino)-4-(4-fluorophenyl)piperidin-1-yl)-2-((methylamino)methyl)-3-phenylbutan-1-one] |  | < 100 |
| CNC[C@@H](C(=O)N1CCC(c2cccc(F)c2)(N(C)C)CC1)[C@@H](C)c1ccccc1 [Example 3, (2S,3R)-1-(4-(dimethylamino)-4-(3-fluorophenyl)piperidin-1-yl)-2-((methylamino)methyl)-3-phenylbutan-1-one] |  | < 100 |
| CNC[C@@H](C(=O)N1CCC(NC)(c2ccccc2)CC1)[C@@H](C)c1ccccc1 [Example 4, (2S,3R)-1-(4-(methylamino)-4-phenylpiperidin-1-yl)-2-((methylamino)methyl)-3-phenylbutan-1-one] |  | 100 to 500 |
| CN(C)C1(c2ccccc2)CCN(C(=O)[C@H](CN)C(C)(C)c2ccccc2)CC1 [Example 5, (S)-2-(aminomethyl)-1-(4-(dimethylamino)-4-phenylpiperidin-1-yl)-3-methyl-3-phenylbutan-1-one] | < 100 |  |
| CC[C@@H](c1ccccc1)[C@@H](CN)C(=O)N1CCC(NC)(c2ccccc2)CC1 [Example 6, (2S,3R)-2-(aminomethyl)-1-(4-(methylamino)-4-phenylpiperidin-1-yl)-3-phenylpentan-1-one dihydrochloride] |  | < 100 |
| C[C@@H](c1ccccc1)[C@@H](CN)C(=O)N1CCC(c2ccccc2)(N(C)C)CC1 [Example 7, (2S,3R)-2-(aminomethyl)-1-(4-(dimethylamino)-4-phenylpiperidin-1-yl)-3-phenylbutan-1-one dihydrochloride] |  | < 100 |
| CC[C@@H](c1ccccc1)[C@@H](CN)C(=O)N1CCC(c2ccccc2)(N(C)C)CC1 [Example 8, (2S,3R)-2-(aminomethyl)-1-(4-(dimethylamino)-4-phenylpiperidin-1-yl)-3-phenylpentan-1-one dihydrochloride] |  | < 100 |
| CNC1(c2ccccc2)CCN(C(=O)[C@H](CN)[C@@H](C)c2ccccc2)CC1 [Example 9, (2S,3R)-2-(aminomethyl)-1-(4-(methylamino)-4-phenylpiperidin-1-yl)-3-phenylbutan-1-one] | < 100 |  |
| CC[C@@H](c1ccccc1)[C@@H](CN)C(=O)N1CC(c2ccccc2)(N(C)C)C1 [Example 10, (2S,3R)-2-(aminomethyl)-1-(3-(dimethylamino)-3-phenylazetidin-1-yl)-3-phenylpentan-1-one] |  | > 500 |
| CC[C@@H](c1cccc(F)c1)[C@@H](CN)C(=O)N1CCC(NC)(c2ccccc2)CC1 [Example 11, (2S,3R)-2-(aminomethyl)-3-(3-fluorophenyl)-1-(4-(methylamino)-4-phenylpiperidin-1-yl)pentan-1-one] |  | < 100 |
| CNC[C@@H](C(=O)N1CCC(c2ccc(OC)cc2)(N(C)C)CC1)[C@@H](C)c1ccccc1 [Example 12, (2S,3R)-1-(4-(dimethylamino)-4-(4-methoxyphenyl)piperidin-1-yl)-2-((methylamino)methyl)-3-phenylbutan-1-one] |  | < 100 |
| CC[C@@H](c1ccccc1)[C@@H](CNC)C(=O)N1CCC(c2ccccc2)(N(C)C)CC1 [Example 13, (2S,3R)-1-(4-(dimethylamino)-4-phenylpiperidin-1-yl)-2-((methylamino)methyl)-3-phenylpentan-1-one dihydrochloride] |  | < 100 |
| CNC[C@@H](C(=O)N1CCC(c2ccccc2)(N(C)C)CC1)[C@@H](C)c1ccccc1F [Example 14, (2S,3R)-1-(4-(dimethylamino)-4-phenylpiperidin-1-yl)-3-(2-fluorophenyl)-2-((methylamino)methyl)butan-1-one dihydrochloride] |  | 100 to 500 |
| CNC[C@@H](C(=O)N1CCC(c2ccccc2)(N(C)C)CC1)[C@@H](C)c1cccc(F)c1 [Example 15, (2S,3R)-1-(4-(dimethylamino)-4-phenylpiperidin-1-yl)-3-(3-fluorophenyl)-2-((methylamino)methyl)butan-1-one] |  | < 100 |

| Structure (SMILES) | Ki [nM] | Ki [1] [nM] |
| --- | --- | --- |
| CNC[C@@H](C(=O)N1CCC(c2cccc(O)c2)(N(C)C)CC1)[C@@H](C)c1ccccc1 [Example 16, (2S,3R)-1-(4-(dimethylamino)-4-(3-hydroxyphenyl)piperidin-1-yl)-2-((methylamino)methyl)-3-phenylbutan-1-one dihydrochloride] |  | < 100 |
| CC[C@@H](c1ccccc1)[C@@H](CNC)C(=O)N1CCC(NC)(c2ccccc2)CC1 [Example 17, (2S,3R)-1-(4-(methylamino)-4-phenylpiperidin-1-yl)-2-((methylamino)methyl)-3-phenylpentan-1-one dihydrochloride] |  | < 100 |
| CC[C@@H](c1ccccc1)[C@@H](CNC)C(=O)N1CC(c2ccccc2)(N(C)C)C1 [Example 19, (2S,3R)-1-(3-(dimethylamino)-3-phenylazetidin-1-yl)-2-((methylamino)methyl)-3-phenylpentan-1-one dihydrochloride] |  | > 500 |
| CC[C@@H](c1cccc(F)c1)[C@@H](CNC)C(=O)N1CCC(NC)(c2ccccc2)CC1 [Example 20, (2S,3R)-3-(3-fluorophenyl)-1-(4-(methylamino)-4-phenylpiperidin-1-yl)-2-((methylamino)methyl)pentan-1-one] |  | < 100 |
| CC[C@@H](c1cccc(F)c1)[C@@H](CNC)C(=O)N1CCC(c2ccccc2)(N(C)C)CC1 [Example 21, (2S,3R)-1-(4-(dimethylamino)-4-phenylpiperidin-1-yl)-3-(3-fluorophenyl)-2-((methylamino)methyl)pentan-1-one] |  | < 100 |
| CC[C@@H](c1ccccc1)[C@@H](CNC)C(=O)N1CCC(NC)(c2ccc(OC)cc2)CC1 [Example 22, (2S,3R)-1-(4-(4-methoxyphenyl)-4-(methylamino)piperidin-1-yl)-2-((methylamino)methyl)-3-phenylpentan-1-one dihydrochloride] |  | < 100 |
| CN(C)C1(c2ccccc2)CCN(C(=O)C(CN)Cc2ccccc2)CC1 (stereo not shown) [Example 28, 3-amino-2-benzyl-1-(4-(dimethylamino)-4-phenylpiperidin-1-yl)propan-1-one dihydrochloride] | < 100 |  |
| CCNCC(Cc1ccccc1)C(=O)N1CCC(c2ccccc2)(N(C)C)CC1 (stereo not shown) [Example 30, 2-benzyl-1-(4-(dimethylamino)-4-phenylpiperidin-1-yl)-3-(ethylamino)propan-1-one dihydrochloride] | < 100 |  |
| CNCCC(Cc1ccccc1)C(=O)N1CCC(c2ccccc2)(N(C)C)CC1 (stereo not shown) [Example 31, 2-benzyl-1-(4-(dimethylamino)-4-phenylpiperidin-1-yl)-4-(methylamino)butan-1-one dihydrochloride] | 100 to 500 |  |
| CNCC(Cc1ccccc1)C(=O)N1CCC(c2cccc(O)c2)(N(C)C)CC1 (stereo not shown) [Example 34, 2-benzyl-1-(4-(dimethylamino)-4-(3-hydroxyphenyl)piperidin-1-yl)-3-(methylamino)propan-1-one dihydrochloride] | < 100 |  |
| CN(C)C1(c2cccc(O)c2)CCN(C(=O)C2NCCc3ccccc32)CC1 (stereo not shown) [Example 35, (4-(dimethylamino)-4-(3-hydroxyphenyl)piperidin-1-yl)(1,2,3,4-tetrahydroisoquinolin-1-yl)methanone dihydrochloride] |  | < 100 |
| CNCC(Cc1ccccc1)C(=O)N1CCC(c2cccc(OC)c2)(N(C)C)CC1 (stereo not shown) [Example 41, 2-benzyl-1-(4-(dimethylamino)-4-(3-methoxyphenyl)piperidin-1-yl)-3-(methylamino)propan-1-one dihydrochloride] |  | < 100 |
| CNCC(Cc1ccccc1)C(=O)N1CCC(NC)(c2cccc(O)c2)CC1 (stereo not shown) [Example 44, 2-benzyl-1-(4-(3-hydroxyphenyl)-4-(methylamino)piperidin-1-yl)-3-(methylamino)propan-1-one dihydrochloride] | < 100 |  |
| C[C@H](N)[C@H](Cc1ccccc1)C(=O)N1CCC(c2ccccc2)(N(C)C)CC1 [Example 48, (2S,3S)-3-amino-2-benzyl-1-(4-(dimethylamino)-4-phenylpiperidin-1-yl)butan-1-one dihydrochloride] |  | < 100 |
| C[C@@H](N)[C@@H](Cc1ccccc1)C(=O)N1CCC(c2ccccc2)(N(C)C)CC1 [Example 49, (2R,3R)-3-amino-2-benzyl-1-(4-(dimethylamino)-4-phenylpiperidin-1-yl)butan-1-one dihydrochloride] |  | 100 to 500 |
| CNCC(Cc1cccc(F)c1)C(=O)N1CCC(c2ccccc2)(N(C)C)CC1 (stereo not shown) [Example 52, 1-(4-(dimethylamino)-4-phenylpiperidin-1-yl)-2-(3-fluorobenzyl)-3-(methylamino) propan-1-one] | < 100 |  |
| CNCC(Cc1ccccc1C#N)C(=O)N1CCC(c2ccccc2)(N(C)C)CC1 (stereo not shown) [Example 55, 2-(3-(4-(dimethylamino)-4-phenylpiperidin-1-yl)-2-((methylamino)methyl)-3-oxopropyl)benzonitrile dihydrochloride] | 100 to 500 |  |
